Molecular target: T1, human ASK1 (Homo sapiens, UniProt Q99683)
T1 construct: a 2.2 kb DNA fragment containing an ASK1 gene was recovered from the gel; made in house; host or cells: Sf-21 insect cells, recombinant baculovirus (pFASTBAC1, Bac-to-Bac)
T1 sequence (Q99683 649-1374 limits assumed): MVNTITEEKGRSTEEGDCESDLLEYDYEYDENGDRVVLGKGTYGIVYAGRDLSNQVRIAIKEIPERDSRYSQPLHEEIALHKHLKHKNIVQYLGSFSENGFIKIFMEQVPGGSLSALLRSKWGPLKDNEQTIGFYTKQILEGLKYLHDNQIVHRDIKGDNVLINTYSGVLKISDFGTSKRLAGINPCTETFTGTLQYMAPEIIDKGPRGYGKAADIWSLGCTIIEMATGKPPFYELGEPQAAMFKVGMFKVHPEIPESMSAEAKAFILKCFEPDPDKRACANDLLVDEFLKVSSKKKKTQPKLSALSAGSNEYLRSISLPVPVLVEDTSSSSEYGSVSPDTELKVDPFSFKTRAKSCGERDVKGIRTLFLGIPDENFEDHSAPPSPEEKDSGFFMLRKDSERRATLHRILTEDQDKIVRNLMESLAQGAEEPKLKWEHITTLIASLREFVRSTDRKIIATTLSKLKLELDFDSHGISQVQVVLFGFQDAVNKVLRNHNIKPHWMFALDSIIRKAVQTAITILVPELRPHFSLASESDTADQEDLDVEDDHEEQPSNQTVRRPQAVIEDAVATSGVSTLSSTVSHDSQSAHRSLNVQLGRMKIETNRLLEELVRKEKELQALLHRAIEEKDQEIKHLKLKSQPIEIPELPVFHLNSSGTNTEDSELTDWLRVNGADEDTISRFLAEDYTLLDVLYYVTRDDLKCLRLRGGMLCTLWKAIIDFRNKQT
Assay: Scintillation assay measuring inhibition of ASK1 phosphorylation of myelin basic protein
Type: biochemical
Details: active ASK1 protein 30 ng, myelin basic protein 1 μg, [γ-32P]ATP, room temperature 30 min; values given as ranges; read-out: Enzyme Activity IC50
Method: Cloning of cDNA encoding human ASK1 was conducted by PCR using primers, 5′-[…] AGAGAAGGGGA-3′ (SEQ ID NO: 1) and 5′-[…]-3′ (SEQ ID NO: 2), from human heart cDNA library (Becton, Dickinson and Company). The PCR product was subjected to agarose gel (1%) electrophoresis, a 2.2 kb DNA fragment containing an ASK1 gene was recovered from the gel, and then digested with restriction enzymes, NotI and SalI, and inserted into a plasmid pFASTBAC1 (Invitrogen) to prepare a plasmid pFB-ASK1. The insert was verified by sequencing. Recombinant baculovirus was prepared according to the procedure of the Bac-to-Bac baculovirus expression system (Invitrogen).
Sf-21 cells were seeded to achieve 1×10^6 cells/mL in 100 mL of Sf-900 II SFM medium (Invitrogen) which contains 10% fetal calf serum and then cultured at 27° C. for 24 hrs. To express ASK1 in cells, 0.15 mL of the recombinant baculovirus virus stock was added to cells, and the then cultured for 60 hrs. The cells were separated from the culture solution by centrifugation at 3000 rpm for 10 min and washed once with PBS. The cells were suspended in 10 mL of lysis buffer (25 mM HEPES (pH 7.5), 1% Triton X, 130 mM NaCl, 1 mM EDTA, 1 mM DTT, 25 mM β-glycerophosphate, Protease inhibitor complete (Roche), 1 mM sodium orthovanadate) and ruptured by four times of treatment with a homogenizer (POLYTRON) at 20000 rpm for 30 seconds. Active ASK1 protein was purified from a supernatant obtained by centrifugal separation at 40000 rpm for 45 min using anti-FLAG M2 Affinity Gel (Sigma).
The test compounds (2.5 μl) dissolved in DMSO were added to wells containing 37.5 μl of the reaction solution (25 mM HEPES (pH 7.5), 10 mM magnesium acetate, 1 mM DTT) including 30 ng of active ASK1 protein and 1 μg of myelin basic protein (Wako), and incubated at room temperature for 5 min. To start the reaction, 10 μL of ATP solution (2.5 μM ATP, 0.1 μCi [γ-^32P]ATP) was added to wells. After incubating at room temperature for 30 min, the reaction was terminated by adding 50 μl of 20% TCA solution. The reaction solution was incubated at 4° C. for 30 min and an acid-insoluble fraction was transferred onto a GF/C filter (Packard) with Cell Harvester (Packard), and washed with 250 mM phosphoric acid. After drying at 45° C. for 60 min., 40 μL of Microscint 0 (Packard) was added and the radioactivity was measured with TopCount (Packard). The concentrations (IC50 value) of the test compounds necessary for 50% inhibition of kinase activity were calculated by PRISM 3.0 (Graphpad Software).
The enzyme activities of selected compounds of the present invention against ASK1 were determined using the assay disclosed in Example A and B. The resulted pIC50 values are reported in Table 1.

IC50 | SMILES
100 to 1000 nM | CC(C)(C)c1ccc(C(=O)Nc2cc(N3CCC[C@H](O)C3)n3nccc3n2)cc1 [Compound 75, (S)-4-tert-butyl-N-(7-(3-hydroxypiperidin-1-yl)pyrazolo[1,5-a]pyrimidin-5-yl)benzamide]
100 to 1000 nM | CC(C)(O)c1ccc(C(=O)Nc2cc(N3CCC[C@@H](O)C3)n3nccc3n2)cc1 [Compound 76, (R)—N-(7-(3-hydroxypiperidin-1-yl)pyrazolo[1,5-a]pyrimidin-5-yl)-4-(2-hydroxypropan-2-yl)benzamide]
100 to 1000 nM | CC(C)(O)c1ccc(C(=O)Nc2cc(N3CCC[C@@H](C(=O)O)C3)n3nccc3n2)cc1 [Compound 84, (R)-1-(5-(4-(2-hydroxypropan-2-yl)benzamido)pyrazolo[1,5-a]pyrimidin-7-yl)piperidine-3-carboxylic acid]
> 1000 nM | CC(C)(O)c1ccc(C(=O)Nc2cc(N3CCC[C@H](C(=O)O)C3)n3nccc3n2)cc1 [Compound 86, (S)-1-(5-(4-(2-hydroxypropan-2-yl)benzamido)pyrazolo[1,5-a]pyrimidin-7-yl)piperidine-3-carboxylic acid]
100 to 1000 nM | CC(C)(O)c1ccc(C(=O)Nc2cc(NC3CC3)n3nccc3n2)cc1 [Compound 88, N-(7-(cyclopropylamino)pyrazolo[1,5-a]pyrimidin-5-yl)-4-(2-hydroxypropan-2-yl)benzamide]
> 1000 nM | CC(C)(O)c1ccc(C(=O)Nc2cc(N3CCn4cnnc4C3)n3nccc3n2)cc1 [Compound 91, N-(7-(5,6-dihydro-[1,2,4]triazolo[4,3-a]pyrazin-7(8H)-yl)pyrazolo[1,5-a]pyrimidin-5-yl)-4-(2-hydroxypropan-2-yl)benzamide]
100 to 1000 nM | Cc1cc2nc(NC(=O)c3ccc(C(C)(C)CO)cc3)cc(N3CC(O)C3)n2n1 [Compound 97, 4-(1-hydroxy-2-methylpropan-2-yl)-N-(7-(3-hydroxyazetidin-1-yl)-2-methylpyrazolo[1,5-a]pyrimidin-5-yl)benzamide]
< 100 nM | CC(C)(C)c1ccc(C(=O)Nc2cc(NC3CC3)n3nccc3n2)cc1 [Compound 128, 4-tert-butyl-N-[7-(cyclopropylamino)pyrazolo[1,5-a]pyrimidin-5-yl]benzamide]

Further lines, the compound ahead of its results:

SMILES | IC50
CC(C)(C)c1ccc(C(=O)Nc2cc(N3CCC[C@@H](O)C3)n3nccc3n2)cc1 [Compound 77, (R)-4-tert-butyl-N-(7-(3-hydroxypiperidin-1-yl)pyrazolo[1,5-a]pyrimidin-5-yl)benzamide] | < 100 nM
CC(C)(O)c1ccc(C(=O)Nc2cc(N3CCC[C@H](O)C3)n3nccc3n2)cc1 [Compound 78, (S)—N-(7-(3-hydroxypiperidin-1-yl)pyrazolo[1,5-a]pyrimidin-5-yl)-4-(2-hydroxypropan-2-yl)benzamide] | 100 to 1000 nM
CC(C)(O)c1ccc(C(=O)Nc2cc(N3CCc4[nH]ncc4C3)n3nccc3n2)cc1 [Compound 79, N-(7-(6,7-dihydro-1H-pyrazolo[4,3-c]pyridin-5(4H)-yl)pyrazolo[1,5-a]pyrimidin-5-yl)-4-(2-hydroxypropan-2-yl)benzamide] | 100 to 1000 nM
CC(C)(O)c1ccc(C(=O)Nc2cc(N3CCC[C@@H](C(N)=O)C3)n3nccc3n2)cc1 [Compound 83, (R)-1-(5-(4-(2-hydroxypropan-2-yl)benzamido)pyrazolo[1,5-a]pyrimidin-7-yl)piperidine-3-carboxamide] | < 100 nM
CC(C)(O)c1ccc(C(=O)Nc2cc(N3CCC[C@H](C(N)=O)C3)n3nccc3n2)cc1 [Compound 85, (S)-1-(5-(4-(2-hydroxypropan-2-yl)benzamido)pyrazolo[1,5-a]pyrimidin-7-yl)piperidine-3-carboxamide] | 100 to 1000 nM
CC(C)(O)c1ccc(C(=O)Nc2cc(N3CCCC3)n3nccc3n2)cc1 [Compound 87, 4-(2-hydroxypropan-2-yl)-N-(7-(pyrrolidin-1-yl)pyrazolo[1,5-a]pyrimidin-5-yl)benzamide] | < 100 nM
CC(C)(O)c1ccc(C(=O)Nc2cc(N3CCc4nc[nH]c(=O)c4C3)n3nccc3n2)cc1 [Compound 89, 4-(2-hydroxypropan-2-yl)-N-(7-(4-oxo-3,4,7,8-tetrahydropyrido[4,3-d]pyrimidin-6(5H)-yl)pyrazolo[1,5-a]pyrimidin-5-yl)benzamide] | < 100 nM
CC(C)(O)c1ccc(C(=O)Nc2cc(N3CCN(S(C)(=O)=O)CC3)n3nccc3n2)cc1 [Compound 90, 4-(2-hydroxypropan-2-yl)-N-(7-(4-(methylsulfonyl)piperazin-1-yl)pyrazolo[1,5-a]pyrimidin-5-yl)benzamide] | 100 to 1000 nM
CC(C)(O)c1ccc(C(=O)Nc2cc(N3CCC[C@H]3C(N)=O)n3nccc3n2)cc1 [Compound 92, (S)-1-(5-(4-(2-hydroxypropan-2-yl)benzamido)pyrazolo[1,5-a]pyrimidin-7-yl)pyrrolidine-2-carboxamide] | > 1000 nM
CC(C)(O)c1ccc(C(=O)Nc2cc(N3CCNC(=O)CC3)n3nccc3n2)cc1 [Compound 93, 4-(2-hydroxypropan-2-yl)-N-(7-(5-oxo-1,4-diazepan-1-yl)pyrazolo[1,5-a]pyrimidin-5-yl)benzamide] | 100 to 1000 nM
Cc1cc2nc(NC(=O)c3ccc(C(C)(C)CO)cc3)cc(N3CCC[C@H]3CO)n2n1 [Compound 95, (S)-4-(1-hydroxy-2-methylpropan-2-yl)-N-(7-(2-(hydroxymethyl)pyrrolidin-1-yl)-2-methylpyrazolo[1,5-a]pyrimidin-5-yl)benzamide] | 100 to 1000 nM
CC(C)(C)c1ccc(C(=O)Nc2cc(N3CCCC(C(N)=O)C3)n3nccc3n2)cc1 (stereo not shown) [Compound 104, 1-(5-(4-tert-butylbenzamido)pyrazolo[1,5-a]pyrimidin-7-yl)piperidine-3-carboxamide] | < 100 nM
CC(C)(C)c1ccc(C(=O)Nc2cc(N3CCCCC3CCO)n3nccc3n2)cc1 (stereo not shown) [Compound 105, 4-tert-butyl-N-(7-(2-(2-hydroxyethyl)piperidin-1-yl)pyrazolo[1,5-a]pyrimidin-5-yl)benzamide] | < 100 nM
CC(C)(C)c1ccc(C(=O)Nc2cc(N3CCC(O)CC3)n3nccc3n2)cc1 [Compound 112, 4-tert-butyl-N-(7-(4-hydroxypiperidin-1-yl)pyrazolo[1,5-a]pyrimidin-5-yl)benzamide] | < 100 nM
CC(C)(C)c1ccc(C(=O)Nc2cc(N3CCCC(O)C3)n3nccc3n2)cc1 (stereo not shown) [Compound 113, 4-tert-butyl-N-(7-(3-hydroxypiperidin-1-yl)pyrazolo[1,5-a]pyrimidin-5-yl)benzamide] | < 100 nM
CN(C)c1cc(NC(=O)c2ccc(C(C)(C)C)cc2)nc2ccnn12 [Compound 125, 4-tert-butyl-N-(7-(dimethylamino)pyrazolo[1,5-a]pyrimidin-5-yl)benzamide] | < 100 nM
Cc1cc2nc(NC(=O)c3ccc(C(C)(C)CO)cc3)cc(N(C)CCc3ccccc3)n2n1 [Compound 127, 4-(1-hydroxy-2-methylpropan-2-yl)-N-(2-methyl-7-(methyl(phenethyl)amino)pyrazolo[1,5-a]pyrimidin-5-yl)benzamide] | > 1000 nM
